Test results: patent US20210255193A1, “LYSINE REACTIVE PROBES AND USES THEREOF” (The Scripps Research Institute, priority 2017, published 2021)

Assays:
Test in all cases: competitive isoTOP-ABPP
Assay type in all cases: binding
[1] = target: T1, FAH Fumarylacetoacetase (Homo sapiens, UniProt P16930); conditions: for isoTOP-ABPP ratio (R) at liganded lysine P16930_K241: sol, 231
T1 construct: isoTOP-ABPP experiments performed in cell lysates (in vitro); endogenous in cells; host or cells: soluble proteome of human cancer cell lines (MDA-MB-231; Ramos and Jurkat also prepared)
T1 sequence (P16930 1-419): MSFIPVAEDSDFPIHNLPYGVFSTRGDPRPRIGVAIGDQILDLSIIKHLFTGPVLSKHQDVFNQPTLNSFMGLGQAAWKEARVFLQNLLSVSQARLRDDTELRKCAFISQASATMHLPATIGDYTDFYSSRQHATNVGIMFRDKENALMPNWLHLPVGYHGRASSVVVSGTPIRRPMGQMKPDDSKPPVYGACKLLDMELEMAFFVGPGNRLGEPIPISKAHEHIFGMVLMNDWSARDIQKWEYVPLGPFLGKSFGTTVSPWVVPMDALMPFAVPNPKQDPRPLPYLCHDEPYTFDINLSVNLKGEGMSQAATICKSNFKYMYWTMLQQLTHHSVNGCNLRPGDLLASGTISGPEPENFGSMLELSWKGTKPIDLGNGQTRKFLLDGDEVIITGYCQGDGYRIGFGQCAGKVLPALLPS
In short: (§1)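 Probe: STP-alkyne, 0.1 mM, 1 h RT, after fragment pretreatment of lysate (esters 50 μM; guanidinylators 100 μM). Tags: light = compound, heavy = DMSO, via CuAAC. Replicates averaged if SD <60% of mean; otherwise lowest ratio used when any R <4.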

[2] = target: T2, XRCC6 X-ray repair cross-complementing protein 6 (Homo sapiens, UniProt P12956); conditions: for isoTOP-ABPP ratio (R) at liganded lysine P12956_K351: sol, 231
T2 construct: isoTOP-ABPP experiments performed in cell lysates (in vitro); endogenous in cells; host or cells: soluble proteome of human cancer cell lines (MDA-MB-231; Ramos and Jurkat also prepared)
In short: as §1

[3] = target: T3, AP1G1 AP-1 complex subunit gamma-1 (Homo sapiens, UniProt O43747); conditions: for isoTOP-ABPP ratio (R) at liganded lysine O43747_K214: sol, 231
T3 construct: isoTOP-ABPP experiments performed in cell lysates (in vitro); endogenous in cells; host or cells: MDA-MB-231 soluble lysate
T3 sequence (O43747 1-822): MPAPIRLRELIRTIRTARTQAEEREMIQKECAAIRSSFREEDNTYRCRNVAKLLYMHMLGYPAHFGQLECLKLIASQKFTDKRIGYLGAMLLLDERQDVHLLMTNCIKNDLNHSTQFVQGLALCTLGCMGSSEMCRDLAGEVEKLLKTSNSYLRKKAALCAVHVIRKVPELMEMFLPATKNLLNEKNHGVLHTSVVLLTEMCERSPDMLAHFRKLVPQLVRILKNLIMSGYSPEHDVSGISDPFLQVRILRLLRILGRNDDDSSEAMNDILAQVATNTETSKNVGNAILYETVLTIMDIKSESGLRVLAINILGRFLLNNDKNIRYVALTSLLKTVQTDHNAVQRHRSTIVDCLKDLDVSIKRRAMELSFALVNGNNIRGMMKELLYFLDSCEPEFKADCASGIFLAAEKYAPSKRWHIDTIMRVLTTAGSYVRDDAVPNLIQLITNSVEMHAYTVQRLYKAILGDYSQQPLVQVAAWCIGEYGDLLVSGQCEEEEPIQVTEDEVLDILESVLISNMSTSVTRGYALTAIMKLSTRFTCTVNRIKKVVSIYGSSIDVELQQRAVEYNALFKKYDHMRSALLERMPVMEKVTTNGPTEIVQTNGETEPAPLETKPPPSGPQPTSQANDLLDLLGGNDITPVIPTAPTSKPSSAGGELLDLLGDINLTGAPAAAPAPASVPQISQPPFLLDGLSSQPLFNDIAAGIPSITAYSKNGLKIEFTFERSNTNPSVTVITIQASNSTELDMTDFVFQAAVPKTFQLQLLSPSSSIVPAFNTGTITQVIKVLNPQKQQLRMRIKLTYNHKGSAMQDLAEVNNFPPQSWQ
In short: as §1

T2 sequence (P12956 2-609 limits assumed): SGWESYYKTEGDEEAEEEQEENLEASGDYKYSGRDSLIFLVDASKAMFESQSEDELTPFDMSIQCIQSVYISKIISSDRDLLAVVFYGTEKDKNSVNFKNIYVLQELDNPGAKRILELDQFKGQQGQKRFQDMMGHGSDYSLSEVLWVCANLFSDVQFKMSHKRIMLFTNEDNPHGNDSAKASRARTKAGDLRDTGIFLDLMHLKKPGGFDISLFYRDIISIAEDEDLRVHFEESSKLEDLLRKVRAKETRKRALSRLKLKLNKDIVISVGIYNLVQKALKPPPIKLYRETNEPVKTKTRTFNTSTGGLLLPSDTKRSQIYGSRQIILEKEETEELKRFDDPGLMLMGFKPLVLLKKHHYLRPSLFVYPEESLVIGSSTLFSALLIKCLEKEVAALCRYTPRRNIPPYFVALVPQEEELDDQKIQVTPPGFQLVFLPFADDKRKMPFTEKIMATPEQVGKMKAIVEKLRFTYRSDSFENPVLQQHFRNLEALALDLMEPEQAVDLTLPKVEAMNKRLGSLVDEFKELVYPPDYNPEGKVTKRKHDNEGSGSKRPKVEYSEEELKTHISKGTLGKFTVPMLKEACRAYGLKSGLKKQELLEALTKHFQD
T2 sequence (P13010 2-732 partner limits assumed): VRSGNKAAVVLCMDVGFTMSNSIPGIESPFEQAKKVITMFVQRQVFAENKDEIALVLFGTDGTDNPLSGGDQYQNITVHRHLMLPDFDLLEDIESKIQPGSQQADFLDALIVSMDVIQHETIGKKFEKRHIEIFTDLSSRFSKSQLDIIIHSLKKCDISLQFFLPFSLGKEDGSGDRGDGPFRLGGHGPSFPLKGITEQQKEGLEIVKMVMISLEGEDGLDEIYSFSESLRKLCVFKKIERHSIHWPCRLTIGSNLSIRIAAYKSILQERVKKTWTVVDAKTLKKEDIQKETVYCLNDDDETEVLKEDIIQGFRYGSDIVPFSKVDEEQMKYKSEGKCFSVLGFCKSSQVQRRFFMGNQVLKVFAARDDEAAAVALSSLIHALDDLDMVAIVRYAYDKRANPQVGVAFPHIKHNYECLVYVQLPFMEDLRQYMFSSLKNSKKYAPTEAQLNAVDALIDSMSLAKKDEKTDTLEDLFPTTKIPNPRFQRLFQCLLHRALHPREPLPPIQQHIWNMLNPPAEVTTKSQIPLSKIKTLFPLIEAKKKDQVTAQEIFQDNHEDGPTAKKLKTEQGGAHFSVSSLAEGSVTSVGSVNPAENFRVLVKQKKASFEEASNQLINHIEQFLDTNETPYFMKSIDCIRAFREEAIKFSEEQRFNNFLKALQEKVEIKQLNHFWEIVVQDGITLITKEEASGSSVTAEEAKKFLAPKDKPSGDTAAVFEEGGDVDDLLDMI

SMILES: COc1cc(CCC(=O)Oc2ccc([N+](=O)[O-])cc2[N+](=O)[O-])cc(OC)c1OC [fragment 33, 2,4-Dinitrophenyl 3-(3,4,5-trimethoxyphenyl)propanoate]
- isoTOP-ABPP reactivity ratio at lysine P16930_K241 ([1]; 50 uM, 231 sol, in vitro): 1.7
- isoTOP-ABPP reactivity ratio at lysine P12956_K351 ([2]; 50 uM, 231 sol, in vitro): 2.5
- isoTOP-ABPP reactivity ratio at lysine O43747_K214 ([3]; 50 uM, 231 sol, in vitro): 1.7

SMILES: O=C(Oc1ccc([N+](=O)[O-])cc1[N+](=O)[O-])C(c1ccccc1)c1ccccc1 [fragment 30, 2,4-Dinitrophenyl 2,2-diphenylacetate]
- isoTOP-ABPP reactivity ratio at lysine P16930_K241 ([1]; 50 uM, 231 sol, in vitro): 2.7
- isoTOP-ABPP reactivity ratio at lysine P12956_K351 ([2]; 50 uM, 231 sol, in vitro): 20.0
- isoTOP-ABPP reactivity ratio at lysine O43747_K214 ([3]; 50 uM, 231 sol, in vitro): 1.1

SMILES: O=C(Oc1ccc([N+](=O)[O-])cc1[N+](=O)[O-])c1cc(C(F)(F)F)cc(C(F)(F)F)c1 [fragment 31, 2,4-Dinitrophenyl 3,5-bis(trifluoromethyl)benzoate]
- isoTOP-ABPP reactivity ratio at lysine P16930_K241 ([1]; 50 uM, 231 sol, in vitro): 20.0
- isoTOP-ABPP reactivity ratio at lysine P12956_K351 ([2]; 50 uM, 231 sol, in vitro): 2.6
- isoTOP-ABPP reactivity ratio at lysine O43747_K214 ([3]; 50 uM, 231 sol, in vitro): 0.9

SMILES: O=C(CCc1cn(-c2ccccc2)nc1-c1ccccc1)Oc1ccc([N+](=O)[O-])cc1[N+](=O)[O-] [fragment 29, 2,4-Dinitrophenyl 3-(1,3-diphenyl-1H-pyrazol-4-yl)propanoate]
- isoTOP-ABPP reactivity ratio at lysine P16930_K241 ([1]; 50 uM, 231 sol, in vitro): 1.7
- isoTOP-ABPP reactivity ratio at lysine P12956_K351 ([2]; 50 uM, 231 sol, in vitro): 3.2
- isoTOP-ABPP reactivity ratio at lysine O43747_K214 ([3]; 50 uM, 231 sol, in vitro): 1.0

SMILES: CC(=O)Oc1ccc([N+](=O)[O-])cc1[N+](=O)[O-] [fragment 43, 2,4-Dinitrophenyl acetate]
- isoTOP-ABPP ratio (R) at liganded lysine P16930_K241 ([1]; 50 uM, in vitro): 1.4
- isoTOP-ABPP ratio (R) at liganded lysine P12956_K351 ([2]; 50 uM, in vitro): 1.5
- isoTOP-ABPP ratio (R) at liganded lysine O43747_K214 ([3]; 50 uM, in vitro): 1.1

SMILES: O=C(Oc1c(F)c(F)cc(F)c1F)c1cc(C(F)(F)F)cc(C(F)(F)F)c1 [fragment 48, 2,3,5,6-Tetrafluorophenyl 3,5-bis(trifluoromethyl)benzoate]
- isoTOP-ABPP ratio, lysine P16930_K241 ([1]; 50 uM_231_sol_in vitro): 2.3
- isoTOP-ABPP ratio, lysine P12956_K351 ([2]; 50 uM_231_sol_in vitro): 1.5
- isoTOP-ABPP ratio, lysine O43747_K214 ([3]; 50 uM_231_sol_in vitro): 0.8

SMILES: CC(C)(C)OC(=O)N=C(NC(=O)OC(C)(C)C)n1cccn1 [fragment 50, reference compound]
- isoTOP-ABPP ratio, lysine P16930_K241 ([1]; 100 uM_231_sol_in vitro): 1.5
- isoTOP-ABPP ratio, lysine P12956_K351 ([2]; 100 uM_231_sol_in vitro): 6.0
- isoTOP-ABPP ratio, lysine O43747_K214 ([3]; 100 uM_231_sol_in vitro): 1.0

SMILES: N#Cc1ccc(C(=O)Oc2ccc([N+](=O)[O-])cc2[N+](=O)[O-])cc1 [fragment 44, 2,4-Dinitrophenyl 4-cyanobenzoate]
- isoTOP-ABPP ratio, lysine P16930_K241 ([1]; 50 uM_231_sol_in vitro): 2.5
- isoTOP-ABPP ratio, lysine P12956_K351 ([2]; 50 uM_231_sol_in vitro): 1.1
- isoTOP-ABPP ratio, lysine O43747_K214 ([3]; 50 uM_231_sol_in vitro): 0.9

SMILES: O=C(Oc1ccc([N+](=O)[O-])cc1[N+](=O)[O-])c1ccc(-c2ccccc2)cc1 [fragment 37, 2,4-Dinitrophenyl [1,1′-biphenyl]-4-carboxylate]
- isoTOP-ABPP ratio (R) at liganded lysine P16930_K241 ([1]; 50 uM, in vitro): 1.0
- isoTOP-ABPP ratio (R) at liganded lysine P12956_K351 ([2]; 50 uM, in vitro): 1.3
- isoTOP-ABPP ratio (R) at liganded lysine O43747_K214 ([3]; 50 uM, in vitro): 0.9

SMILES: O=C(CCc1ccc2c(c1)OCO2)Oc1ccc([N+](=O)[O-])cc1[N+](=O)[O-] [fragment 45, 2,4-Dinitrophenyl 3-(benzo[d][1,3]dioxol-5-yl)propanoate]
- isoTOP-ABPP ratio, lysine P16930_K241 ([1]; 50 uM_231_sol_in vitro): 1.3
- isoTOP-ABPP ratio, lysine P12956_K351 ([2]; 50 uM_231_sol_in vitro): 1.9
- isoTOP-ABPP ratio, lysine O43747_K214 ([3]; 50 uM_231_sol_in vitro): 1.2

SMILES: COC(=O)NC(=NC(=O)OCC1c2ccccc2-c2ccccc21)n1cccn1 [fragment 49, N-Methoxycarbonyl-N′-9-fluorenylmethoxycarbonyl-pyrazole-1-carboxamidine]
- isoTOP-ABPP ratio, lysine P16930_K241 ([1]; 100 uM_231_sol_in vitro): 1.3
- isoTOP-ABPP ratio, lysine P12956_K351 ([2]; 100 uM_231_sol_in vitro): 20.0
- isoTOP-ABPP ratio, lysine O43747_K214 ([3]; 100 uM_231_sol_in vitro): 1.0

SMILES: O=C(Oc1c(F)c(F)c(F)c(F)c1F)C(c1ccccc1)c1ccccc1 [fragment 20, Pentafluorophenyl 2,2-diphenylacetate]
- R value (DMSO/fragment) for probe 1 labeling ([1]; P16930_K241, 50 uM, 231 sol, in vitro): 1.0
- R value (DMSO/fragment) for probe 1 labeling ([2]; P12956_K351, 50 uM, 231 sol, in vitro): 2.3
- R value (DMSO/fragment) for probe 1 labeling ([3]; O43747_K214, 50 uM, 231 sol, in vitro): 0.9
